Results on 6 compounds are retold here after PMC4618117, “Synthesis and Antiproliferative Activity of Steroidal Thiosemicarbazone Platinum (Pt(II)) Complexes” (Bioinorganic Chemistry and Applications, 2015).

Like-named read-outs stand apart in the source and are kept apart here. Where only a bound is given, the exact number is not on record here.

Series [1] relates to Bel-7404 (human liver carcinoma) cells. The experiment in a line: MTT antiproliferative assay, Bel-7404. Type of series: cell-based. The note with it: for IC50: mean of three independent determinations, read-out: Cytotoxicity IC50 Bel-7404. The method, then: (§1) Melting points were determined on an X4 apparatus (Beijing Tech Instrument Co. Ltd., Beijing, China) and were uncorrected. The ^1H and ^13C NMR spectra were recorded in CDCl3 on a Bruker AV-600 spectrometer at working frequencies 600 and 150 MHz and a Bruker AV-300 spectrometer at working frequencies 300 and 75 MHz, respectively. Chemical shifts are expressed in parts per million (δ) values and coupling constants (J) in Hertz. Infrared spectra were measured with a Thermo Scientific Nicolet IS-10 Spectrophotometer (Thermo Scientific, America). HREIMS was measured on an Agilent 6210 TOFMS instrument (Agilent Technologies, America). The cell proliferation assay was undertaken by a MTT method using 96-well plates on a […] MK3 analysis spectrometer (Thermo Scientific, Shanghai, China).
(§2) The detailed procedure has been reported in our previous work.
(§3) The antiproliferative activities of all steroidal thiosemicarbazones and their Pt(II) metal complexes were determined in vitro on Bel 7404, HeLa, and HEK293T. […] The results are summarized as IC50 values in μM in Table 1.

The test system of series [2] is HeLa (human cervical carcinoma) cells. Description: MTT antiproliferative assay, HeLa. Type of series: cell-based. The note with it: for IC50: mean of three independent determinations, read-out: Cytotoxicity IC50 HeLa. The method, then: as §1, §2, §3
Series [3] has as its system HEK293T (normal kidney epithelial cells). The experiment in a line: MTT antiproliferative assay, HEK293T. Format: cell-based. The note with it: mean of three independent determinations, read-out: Cytotoxicity IC50 HEK293T. The method, then: as §1, §2
(§4) The antiproliferative activities of all steroidal thiosemicarbazones and their Pt(II) metal complexes were determined in vitro on Bel 7404, HeLa, and HEK293T.

Series [4] in a line: MTT antiproliferative assay, HEK293T. The note with it: human, HEK293T normal kidney epithelial cells, mean of three independent determinations, read-out: Cytotoxicity IC50 HEK293T. Format: cell-based. The method, then:
as §1, §2, §4

[5] abbreviates: Homo sapiens, BEL-7404, MTT assay.

The compound `CC12CCC3c4ccc(O)cc4CCC3C1CCC2=NNC(N)=S` (stereo not drawn) [Compound 2, 3β-Hydroxyestron-17-thiosemicarbazone] returned a melting point of 254 to 256 °C. The 50% inhibitory concentration (IC50) in series [1] (setting [5]) was found to be 19 µM. In addition, the IC50 in series [2] (Homo sapiens, HeLa, MTT assay) was found to be 34 µM.

In the case of `CC12CCC3c4ccc(O)cc4CCC3C1CCC2=[N+]1NC(N)=[S+][Pt-2]1([Cl])[Cl]` (stereo not shown) [Compound 3, [PtL ^2 Cl 2]], the figures for the IC50 in series [3], in series [1] (MTT assay) and in series [2] (MTT assay) were greater than 200 µM, 39 µM and 23 µM, respectively. For the same compound, the “Cytotoxicity against Bel 7404 cells (in words)” value in series [1] (MTT assay, verbal summary) is on record as “obvious cytotoxicity”. For the same compound, in series [1] (ratio IC50 HEK293T versus IC50 Bel 7404), the “SI Bel 7404 (Selectivity Index)” value is listed as greater than 5.1. In series [2] (MTT assay, verbal summary), the “Cytotoxicity against HeLa cells (in words)” value is on record as “obvious cytotoxicity”. Further, in series [2] (ratio IC50 HEK293T versus IC50 HeLa), the “SI HeLa (Selectivity Index)” value is reported as greater than 8.7.

`CC(=O)Oc1ccc2c(c1)CCC1C2CCC2(C)/C(=N/NC(N)=S)CCC12` (stereo not drawn) [Compound 5, 3β-Acetyloxyestron-17-thiosemicarbazone]: the melting point lay in the range of 248 to 249 °C. In series [4], the IC50 was greater than 200 µM. Besides, the half-inhibitory concentration (IC50) in series [1] (setting [5]) was greater than 200 µM. In addition, the IC50 in series [2] (Homo sapiens, HeLa, MTT assay) is 42 µM.

`COC(=O)CCC(C)C1CCC2C3C(=O)CC4CC(=NNC(N)=S)CCC4(C)C3CCC12C` (stereo not shown) [Compound 8, Methyl 3-Thiosemicarbazonyl-7-oxochenodeoxycholicate]: the melting point was in the range of 285 to 286 °C. In addition, the IC50 in series [4] was greater than 200 µM. Besides, the 50% inhibitory concentration (IC50) in series [1] (setting [5]) is greater than 200 µM. Moreover, the IC50 in series [2] (Homo sapiens, HeLa, MTT assay) amounted to 96 µM.

For `COC(=O)CCC(C)C1CCC2C3C(O)CC4CC(=NNC(N)=S)CCC4(C)C3CCC12C` (stereo not shown) [Compound 10, Methyl 3-Thiosemicarbazonyl-7-hydroxychenodeoxycholicate], the IC50 in series [4] was greater than 200 µM; in series [1] (setting [5]), greater than 200 µM; in series [2] (Homo sapiens, HeLa, MTT assay), 142 µM.

The compound `COC(=O)CCC(C)C1CCC2C3CCC4CC(=NNC(N)=S)CCC4(C)C3CC(=O)C12C` (stereo not shown) [Compound 13, Methyl 3-Thiosemicarbazonyl-12-oxo-7-deoxycholicate] returned a melting point of 125 to 127 °C. The IC50 in series [4] was greater than 200 µM. The IC50 in series [1] (setting [5]) is greater than 200 µM. Also, the IC50 in series [2] (Homo sapiens, HeLa, MTT assay) was greater than 200 µM.
